This note sets out measurements from US11208404B2 (PERENNA PHARMACEUTICALS, INC., priority 2017, dated 2021).

Read-outs that look alike come from different tables or passages of the source. Bounds are passed on as bounds.

In test [1] the target is T1, ALCAT1 (Homo sapiens (Human), UniProt Q6UWP7). In words: Cell-based assay for ALCAT inhibitor compounds (H9C2 cells). The settings on record: H9c2, 3 μM compound; H9C2 vector cell line and H9C2 with stable overexpression of ALCAT1. The method, then:
The assay was performed on the H9C2 vector cell line and H9C2 with stable overexpression of ALCAT1. Materials used in the protocol were CoA, LPG, compounds, chloroform, methanol, 0.9% KCl, 6-well-plates, 1.5 mL tubes, DMEM, FBS, P/S and PBS.
Cells were seeded in 6-well-plates, 8×10^5 cells/well, and cultured at 37° C. in 5% CO2 overnight.
Cells were washed once with ice-cold PBS, collected in ice-cold PBS and centrifuged at 5000 rpm for 5 min at 4° C. 200 μL of chloroform: methanol (2:1) was added to the cell pellet, which was vortexed to suspend the cells and incubated at RT for 1 hr.
40 μL of 0.9% KCl was added and the sample was vortexed before centrifugation at 10000 rpm for 5 min at RT. The aqueous phase (upper layer) was discarded and the organic phase (lower layer) was loaded to a TLC plate (10 cm×20 cm), 40 μL/sample.
The plates were developed in chloroform: methanol: water (65:25:4) for about 30 min and scanned using a Typhoon Scanner. The bands intensity was analysed using ImageJ and the inhibition activity of the tested compounds was calculated.
Compound inhibitors for ALCAT1 enzyme were analyzed by an in vitro cell-based assay as detailed above.
Target sequence in this assay (Q6UWP7 whole entry, species assumed): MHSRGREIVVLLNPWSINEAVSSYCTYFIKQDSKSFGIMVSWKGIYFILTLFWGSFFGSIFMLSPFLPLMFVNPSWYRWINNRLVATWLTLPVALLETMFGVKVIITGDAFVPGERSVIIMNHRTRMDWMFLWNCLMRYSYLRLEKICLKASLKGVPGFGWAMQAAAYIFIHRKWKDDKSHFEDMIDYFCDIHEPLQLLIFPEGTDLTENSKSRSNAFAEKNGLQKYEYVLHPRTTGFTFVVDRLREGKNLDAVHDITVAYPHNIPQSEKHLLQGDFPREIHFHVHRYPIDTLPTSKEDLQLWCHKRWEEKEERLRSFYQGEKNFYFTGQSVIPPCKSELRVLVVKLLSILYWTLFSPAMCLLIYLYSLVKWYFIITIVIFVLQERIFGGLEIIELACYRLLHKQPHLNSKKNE

Test [2] deals with T1, ALCAT1. In words: In vitro acyltransferase assay for ALCAT1 inhibitors. It counts as biochemical. Particulars: for % inh @ 1 μM / inhibition at 1 µM: 1 μM compound; for % inh @ 1 μM / inhibition at 1 µM / inhibition at 10 µM: in vitro enzymatic assay; for IC50: ALCAT1 enzyme activity; for inhibition at 10 µM: 10 μM compound. The method, boiled down: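 Membrane fractions from Sf9 cells expressing human ALCAT1 incubated 30 min at room temperature with 100 µM MLCL or LPG and 25 µM [14C]acyl-CoA (or 100 µM NBD-CoA) in 50 mM Tris/HCl pH 7.0.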
Target sequence in this assay (Q6UWP7 whole entry): as the sequence (Q6UWP7 whole entry, species assumed) above

Setting [3] is: read-out: IC50 values (upper bounds).
Where [4] appears, read: triplicates, GraphPad, read-out: IC50.

Usually inhibition stands for the change of the read-out against control, counted positive when it falls. Broadly, the IC50 is the concentration needed to halve the response being measured. Compound `COc1ccc(Br)cc1C(=O)Nc1cc(-c2nnc(-c3ccco3)o2)ccc1F` [Compound 183, 5-Bromo-N-(2-fluoro-5-(5-(furan-2-yl)-1,3,4-oxadiazol-2-yl)phenyl)-2-methoxybenzamide] showed an inhibition at 3 µM at ALCAT1 [1] of 62%. Also, at ALCAT1 [2], the “% inh @ 1 μM” value is 100/100% and testing at 1 µM gave an inhibition of 100%. The IC50 on ALCAT1 [2] (setting [3]) was below 100 nM. Also, the concentration for half-maximal inhibition (IC50) at ALCAT1 [2] (setting [4]) worked out at 24 nM.
`COc1ccc(Cl)cc1C(=O)Nc1cc(-c2nnc(-c3ccco3)o2)ccc1F` [Compound 184, 5-Chloro-N-(2-fluoro-5-(5-(furan-2-yl)-1,3,4-oxadiazol-2-yl)phenyl)-2-methoxybenzamide] had an inhibition at 3 µM against ALCAT1 [1] of 57%. Moreover, the “% inh @ 1 μM” value on ALCAT1 [2] is given as 100/100%. Besides, at ALCAT1 [2], 1 µM produced 100% inhibition. Besides, the IC50 was below 100 nM at ALCAT1 [2] (setting [3]) and 18 nM at ALCAT1 [2] (setting [4]).
On ALCAT1 [1], `CCCOc1ccc(C)cc1C(=O)Nc1cc(-c2nnc(-c3ccco3)o2)ccc1F` [Compound 208, N-(2-Fluoro-5-(5-(furan-2-yl)-1,3,4-oxadiazol-2-yl)phenyl)-5-methyl-2-propoxybenzamide] gave an inhibition at 3 µM of 36%. At ALCAT1 [2], the “% inh @ 1 μM” value amounted to 98% and the inhibition at 1 µM was determined as 97%. Further, on ALCAT1 [2] (setting [4]), the IC50 was found to be 76 nM.
Take `CCCOc1ccc(Cl)cc1C(=O)Nc1cc(-c2nnc(-c3ccco3)o2)ccc1F` [Compound 209, 5-Chloro-N-(2-fluoro-5-(5-(furan-2-yl)-1,3,4-oxadiazol-2-yl)phenyl)-2-propoxybenzamide]: at 3 µM the inhibition against ALCAT1 [1] was 37%. On ALCAT1 [2], this compound had an inhibition at 1 µM of 100% and an inhibition at 10 µM of 100%. Besides, the concentration for half-maximal inhibition (IC50) at ALCAT1 [2] (setting [3]) was below 100 nM. For the same compound, at ALCAT1 [2] (setting [4]), the IC50 was 25 nM.
Consider `CCCOc1ccc(F)cc1C(=O)Nc1cc(-c2nnc(-c3ccco3)o2)ccc1F` [Compound 210, 5-Fluoro-N-(2-fluoro-5-(5-(furan-2-yl)-1,3,4-oxadiazol-2-yl)phenyl)-2-propoxybenzamide], for which at 3 µM the inhibition at ALCAT1 [1] was 24%. Moreover, on ALCAT1 [2], the inhibition at 1 µM stood at 97% and the inhibition at 10 µM turned out to be 97%. Moreover, the IC50 at ALCAT1 [2] (setting [4]) came to 66 nM.
`CCOc1ccc(Cl)cc1C(=O)Nc1cc(-c2nnc(-c3ccco3)o2)ccc1F` [Compound 216, 5-chloro-2-ethoxy-N-(2-fluoro-5-(5-(furan-2-yl)-1,3,4-oxadiazol-2-yl)phenyl)benzamide] came in with an inhibition at 3 µM at ALCAT1 [1] of 45%. Also, on ALCAT1 [2], the “% inh @ 1 μM” value is listed as 100/100% and the inhibition at 1 µM is 100%. On ALCAT1 [2] (setting [3]), the IC50 was below 100 nM. The IC50 on ALCAT1 [2] (setting [4]) was found to be 19 nM.
`CCOc1ccc(CC)cc1C(=O)Nc1cccc(-c2nnc(-c3ccco3)o2)c1` [Compound 219, 2-Ethoxy-5-ethyl-N-(3-(5-(furan-2-yl)-1,3,4-oxadiazol-2-yl)phenyl)benzamide]: testing at 3 µM on ALCAT1 [1] gave an inhibition of 22%. Besides, on ALCAT1 [2], the “% inh @ 1 μM” value was found to be 98% and the inhibition at 1 µM is 99%. In addition, the 50% inhibitory concentration (IC50) at ALCAT1 [2] (setting [3]) is below 100 nM. Moreover, on ALCAT1 [2] (setting [4]), the IC50 stood at 34 nM.
The compound `CCOc1ccc(C)cc1C(=O)Nc1cc(-c2nnc(-c3ccco3)o2)ccc1F` [Compound 221, 2-Ethoxy-N-(2-fluoro-5-(5-(furan-2-yl)-1,3,4-oxadiazol-2-yl)phenyl)-5-methylbenzamide] showed an inhibition at 3 µM at ALCAT1 [1] of 38%. In addition, on ALCAT1 [2], the “% inh @ 1 μM” value is given as 100/100% and at 1 µM the inhibition was 100%. Besides, the half-inhibitory concentration (IC50) on ALCAT1 [2] (setting [3]) is below 100 nM. Further, at ALCAT1 [2] (setting [4]), the IC50 came to 31 nM.
For `CCOc1ccc(CC)cc1C(=O)Nc1cc(-c2nnc(-c3ccco3)o2)ccc1F` [Compound 222, 2-Ethoxy-5-ethyl-N-(2-fluoro-5-(5-(furan-2-yl)-1,3,4-oxadiazol-2-yl)phenyl)benzamide] the same measures were 85%, 97%, 100%, below 35 nM and 8 nM.
`COc1ccc(OC(F)(F)F)cc1C(=O)Nc1cccc(-c2nnc(-c3ccco3)o2)c1` [Compound 279, N-(3-(5-(Furan-2-yl)-1,3,4-oxadiazol-2-yl)phenyl)-2-methoxy-5-(trifluoromethoxy)benzamide] had an inhibition at 3 µM against ALCAT1 [1] of 7%. The same compound showed an inhibition at 1 µM at ALCAT1 [2] of 97%. Besides, the concentration for half-maximal inhibition (IC50) on ALCAT1 [2] (setting [4]) was found to be 60 nM.
For `CCCc1ccc(OC)c(C(=O)Nc2cc(-c3nnc(-c4ccco4)o3)ccc2F)c1` [Compound 281, N-(2-Fluoro-5-(5-(furan-2-yl)-1,3,4-oxadiazol-2-yl)phenyl)-2-methoxy-5-propylbenzamide], the inhibition at 3 µM at ALCAT1 [1] came to 65%. On ALCAT1 [2], the “% inh @ 1 μM” value stood at 97% and 1 µM produced 100% inhibition. The half-maximal inhibitory concentration (IC50) on ALCAT1 [2] (setting [3]) is below 100 nM. Also, the concentration for half-maximal inhibition (IC50) at ALCAT1 [2] (setting [4]) turned out to be 24 nM.
`COc1ccc(C)cc1C(=O)Nc1cc(-c2nnc(-c3ccco3)o2)ccc1F` [Compound 300, N-(2-Fluoro-5-(5-(furan-2-yl)-1,3,4-oxadiazol-2-yl)phenyl)-2-methoxy-5-methylbenzamide] had an inhibition at 3 µM at ALCAT1 [1] of 31%. Also, 1 µM produced 96% inhibition against ALCAT1 [2]. In addition, the IC50 was below 100 nM at ALCAT1 [2] (setting [3]) and 30 nM on ALCAT1 [2] (setting [4]).
At ALCAT1 [1], `O=C(Nc1cc(-c2nnc(-c3ccco3)o2)ccc1F)c1ccccc1OC(F)F` [Compound 302, 2-(Difluoromethoxy)-N-(2-fluoro-5-(5-(furan-2-yl)-1,3,4-oxadiazol-2-yl)phenyl)benzamide] returned an inhibition at 3 µM of 20%. The inhibition at 1 µM at ALCAT1 [2] was 97%. In addition, the concentration for half-maximal inhibition (IC50) at ALCAT1 [2] (setting [4]) was determined as 36 nM.
On ALCAT1 [1], `O=C(Nc1cc(-c2nnc(-c3ccco3)o2)ccc1F)c1cc(Cl)ccc1OC(F)(F)F` [Compound 304, 5-Chloro-N-(2-fluoro-5-(5-(furan-2-yl)-1,3,4-oxadiazol-2-yl)phenyl)-2-(trifluoromethoxy)benzamide] showed an inhibition at 3 µM of 31%. For the same compound, on ALCAT1 [2], the “% inh @ 1 μM” value worked out at 96% and 1 µM produced 98% inhibition. In addition, the IC50 at ALCAT1 [2] (setting [3]) is below 100 nM. Moreover, at ALCAT1 [2] (setting [4]), the half-inhibitory concentration (IC50) was 20 nM.
Regarding `O=C(Nc1cc(-c2nnc(-c3ccco3)o2)ccc1F)c1cc(Cl)ccc1OC(F)F` [Compound 305, 5-Chloro-2-(difluoromethoxy)-N-(2-fluoro-5-(5-(furan-2-yl)-1,3,4-oxadiazol-2-yl)phenyl)benzamide], the inhibition at 3 µM against ALCAT1 [1] is 34%. The inhibition at 1 µM at ALCAT1 [2] came out at 100%. The figures for the half-inhibitory concentration (IC50) on ALCAT1 [2] (setting [3]) and at ALCAT1 [2] (setting [4]) were below 100 nM and 21 nM, respectively.
With `O=C(Nc1cc(-c2nnc(-c3ccco3)o2)ccc1F)c1cc(Cl)ccc1OCF` [Compound 306, 5-Chloro-N-(2-fluoro-5-(5-(furan-2-yl)-1,3,4-oxadiazol-2-yl)phenyl)-2-(fluoromethoxy)benzamide], the inhibition at 3 µM against ALCAT1 [1] was 30%. Besides, the inhibition at 1 µM on ALCAT1 [2] was 100%. Besides, the values for the IC50 at ALCAT1 [2] (setting [3]) and on ALCAT1 [2] (setting [4]) were below 100 nM and 19 nM, respectively.
`O=C(Nc1cc(-c2nnc(-c3ccco3)o2)ccc1F)c1cc(F)ccc1OCCF` [Compound 312, 5-Fluoro-N-(2-fluoro-5-(5-(furan-2-yl)-1,3,4-oxadiazol-2-yl)phenyl)-2-(2-fluoroethoxy)benzamide] registered an inhibition at 3 µM against ALCAT1 [1] of 4%. This compound displayed an inhibition at 1 µM against ALCAT1 [2] of 98%. For the same compound, the results for the IC50 on ALCAT1 [2] (setting [3]) and on ALCAT1 [2] (setting [4]) were below 100 nM and 33 nM, respectively.
In turn, `O=C(Nc1cc(-c2nnc(-c3ccco3)o2)ccc1F)c1ccccc1OCC(F)(F)F` [Compound 313, N-(2-Fluoro-5-(5-(furan-2-yl)-1,3,4-oxadiazol-2-yl)phenyl)-2-(2,2,2-trifluoroethoxy)benzamide] came in with an inhibition at 3 µM against ALCAT1 [1] of 19%. The compound further gave an inhibition at 1 µM on ALCAT1 [2] of 94%. Moreover, on ALCAT1 [2] (setting [4]), the IC50 came to 64 nM.
Consider `O=C(Nc1cc(-c2nnc(-c3ccco3)o2)ccc1F)c1ccccc1OCC(F)F` [Compound 314, 2-(2,2-Difluoroethoxy)-N-(2-fluoro-5-(5-(furan-2-yl)-1,3,4-oxadiazol-2-yl)phenyl)benzamide], for which at 3 µM the inhibition against ALCAT1 [1] was 36%. At ALCAT1 [2], this compound gave an inhibition at 1 µM of 95%. For the same compound, the IC50 on ALCAT1 [2] (setting [3]) is below 100 nM; on ALCAT1 [2] (setting [4]) it was 29 nM.
With `O=C(Nc1cc(-c2nnc(-c3ccco3)o2)ccc1F)c1cc(Cl)ccc1OCC(F)F` [Compound 317, 5-Chloro-2-(2,2-difluoroethoxy)-N-(2-fluoro-5-(5-(furan-2-yl)-1,3,4-oxadiazol-2-yl)phenyl)benzamide], the inhibition at 3 µM on ALCAT1 [1] came out at 52%. This compound showed an inhibition at 1 µM against ALCAT1 [2] of 96%. Besides, the concentration for half-maximal inhibition (IC50) was below 100 nM on ALCAT1 [2] (setting [3]) and 19 nM on ALCAT1 [2] (setting [4]).
For `O=C(Nc1cc(-c2nnc(-c3ccco3)o2)ccc1F)c1cc(Cl)ccc1OCCF` [Compound 318, 5-Chloro-N-(2-fluoro-5-(5-(furan-2-yl)-1,3,4-oxadiazol-2-yl)phenyl)-2-(2-fluoroethoxy)benzamide], on ALCAT1 [1], the inhibition at 3 µM was 36%. The same compound showed an inhibition at 1 µM on ALCAT1 [2] of 98%. The IC50 was below 100 nM at ALCAT1 [2] (setting [3]) and 24 nM at ALCAT1 [2] (setting [4]).
